Measurements taken from ChEMBL document CHEMBL5046308, “Heterobifunctional Compounds as BRAF Degraders for Treating Cancer” (ACS Med Chem Lett, 2022).

Molecular target: Protein cereblon/Serine/threonine-protein kinase B-raf (Homo sapiens, UniProt P15056+Q96SW2, V600E)
Assay: Protac activity at CRBN/BRAF V600E mutant (unknown origin) assessed as BRAF V600E degradation by HiBit cellular BRAF V600E degradation assay

Sequence of Protein cereblon/Serine/threonine-protein kinase B-raf (P15056 2-766 V600E limits assumed, stated change not applied): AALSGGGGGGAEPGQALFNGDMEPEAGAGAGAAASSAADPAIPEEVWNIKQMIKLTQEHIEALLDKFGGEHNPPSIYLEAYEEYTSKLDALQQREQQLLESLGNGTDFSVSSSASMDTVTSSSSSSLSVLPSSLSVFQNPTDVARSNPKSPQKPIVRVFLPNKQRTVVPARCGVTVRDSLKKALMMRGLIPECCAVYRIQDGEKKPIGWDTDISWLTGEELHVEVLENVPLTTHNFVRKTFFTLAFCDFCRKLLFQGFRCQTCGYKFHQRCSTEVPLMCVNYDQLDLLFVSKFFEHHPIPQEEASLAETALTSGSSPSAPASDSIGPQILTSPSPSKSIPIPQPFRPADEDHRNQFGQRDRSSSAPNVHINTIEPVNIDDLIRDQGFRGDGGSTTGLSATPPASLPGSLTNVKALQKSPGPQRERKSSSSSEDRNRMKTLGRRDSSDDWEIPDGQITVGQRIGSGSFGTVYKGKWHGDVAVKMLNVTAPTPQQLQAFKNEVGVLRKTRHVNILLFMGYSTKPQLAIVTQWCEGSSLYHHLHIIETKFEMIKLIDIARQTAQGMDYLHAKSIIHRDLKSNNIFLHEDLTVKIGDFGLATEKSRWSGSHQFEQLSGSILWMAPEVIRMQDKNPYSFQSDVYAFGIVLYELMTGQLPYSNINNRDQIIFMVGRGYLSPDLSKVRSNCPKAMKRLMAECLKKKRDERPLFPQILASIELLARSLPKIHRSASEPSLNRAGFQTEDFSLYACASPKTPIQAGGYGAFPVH
Sequence of Protein cereblon/Serine/threonine-protein kinase B-raf (Q96SW2 whole entry, stated change not applied): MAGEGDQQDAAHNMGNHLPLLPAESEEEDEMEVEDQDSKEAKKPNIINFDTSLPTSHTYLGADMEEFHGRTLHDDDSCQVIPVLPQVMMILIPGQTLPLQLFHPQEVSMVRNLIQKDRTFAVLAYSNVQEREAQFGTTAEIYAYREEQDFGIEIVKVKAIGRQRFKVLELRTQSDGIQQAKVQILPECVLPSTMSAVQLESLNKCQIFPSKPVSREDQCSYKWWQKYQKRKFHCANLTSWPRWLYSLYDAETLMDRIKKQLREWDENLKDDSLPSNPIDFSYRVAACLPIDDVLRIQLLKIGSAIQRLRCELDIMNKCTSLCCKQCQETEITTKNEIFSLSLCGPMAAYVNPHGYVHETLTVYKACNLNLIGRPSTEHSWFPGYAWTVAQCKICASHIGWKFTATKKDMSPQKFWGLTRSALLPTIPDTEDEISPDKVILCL

## CCN(C)S(=O)(=O)Nc1ccc(F)c(C(=O)c2c[nH]c3ncc(-c4ccc(N5CCN(C(=O)CCCNc6cccc7c6C(=O)N(C6CCC(=O)NC6=O)C7=O)CC5)nc4)cc23)c1F (stereo unspecified)
  DC50: 26 nM

## CCN(C)S(=O)(=O)Nc1ccc(F)c(C(=O)c2c[nH]c3ncc(-c4ccc(N5CCN(C(=O)CCCOc6cccc7c6C(=O)N(C6CCC(=O)NC6=O)C7=O)CC5)cc4)cc23)c1F (stereo unspecified)
  DC50: 16 nM

## CCN(C)S(=O)(=O)Nc1ccc(F)c(C(=O)c2c[nH]c3ncc(-c4ccc(N5CCN(C(=O)CCCOc6cccc7c6C(=O)N(C6CCC(=O)NC6=O)C7=O)CC5)nc4)cc23)c1F (stereo unspecified)
  DC50: 10 nM

## CCN(C)S(=O)(=O)Nc1ccc(F)c(C(=O)c2c[nH]c3ncc(-c4ccc(N5CCN(C(=O)[C@H]6C[C@H](Nc7cccc8c7C(=O)N(C7CCC(=O)NC7=O)C8=O)C6)CC5)nc4)cc23)c1F (stereo partly specified)
  DC50: 10 nM

## CCN(C)S(=O)(=O)Nc1ccc(F)c(C(=O)c2c[nH]c3ncc(-c4ccc(N5CCN(C(=O)[C@H]6C[C@H](Nc7cccc8c7C(=O)N(C7CCC(=O)NC7=O)C8=O)C6)CC5)cc4)cc23)c1F (stereo partly specified)
  DC50: 23 nM

## CCN(C)S(=O)(=O)Nc1ccc(F)c(C(=O)c2c[nH]c3ncc(-c4cnc(N5CCN(C(=O)CCCOc6cccc7c6C(=O)N(C6CCC(=O)NC6=O)C7=O)CC5)nc4)cc23)c1F (stereo unspecified)
  DC50: 20 nM
